Strand notation (5' to 3'): a small letter for the sugar, then the base; units joined by * are phosphorothioate-linked, units joined directly phosphodiester-linked; [ ] holds rarer units or linkages, { } end groups; capitals alone tell only the bases. k = constrained ethyl (cEt); [5mC] = 5-methylcytosine; d = 2'-deoxy (DNA)
Test system: Yap1 mRNA
Assay: Antisense inhibition of human Yap1 in A-431 cells by cEt gapmers, single dose (Example 1, RTS4814)
Assay type: cell-based
Conditions: A-431 cells, 5,000 cells per well, free uptake, 2,000 nM modified oligonucleotide, approx. 48 hours, RTS4814, normalized to RIBOGREEN; Table 3
How it was run: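 Free uptake of 2,000 nM 3-10-3 cEt gapmer (16-mer, full phosphorothioate, 5-methylcytosines) in A-431 cells for ~48 h. Yap1 mRNA quantified by qRT-PCR with set RTS4814, normalized to total RNA (RiboGreen), and expressed as % of untreated control; asterisked values target the amplicon region.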

Substance | YAP1 (% UTC)
715531 (kA*k[5mC]*kA*dA*d[5mC]*d[5mC]*dT*dG*dG*dT*dT*dT*dG*kT*kT*kT; antisense) [Compound 715531] | 94 % UTC
715540 (kT*kG*kA*dA*dG*dA*dA*d[5mC]*dT*dA*dT*dT*dT*k[5mC]*k[5mC]*kT; antisense) [Compound 715540] | 82 % UTC
715606 (antisense kA*k[5mC]*k[5mC]*dA*dT*dA*dG*d[5mC]*dA*d[5mC]*dA*dG*dA*kA*kT*kT) [Compound 715606] | 88 % UTC
715567 (kG*kG*kT*dA*dG*dG*dA*dT*dA*dA*dA*dT*dG*kA*kA*kT; antisense) [Compound 715567] | 99 % UTC
715582 (kG*kT*k[5mC]*dA*dA*dG*d[5mC]*d[5mC]*dT*dG*dT*d[5mC]*dT*kG*kG*kA; antisense) [Compound 715582] | 33 % UTC
715612 (antisense kT*kA*k[5mC]*dT*dT*dT*dA*dA*dG*d[5mC]*d[5mC]*dA*d[5mC]*kA*kT*kG) [Compound 715612] | 77 % UTC
715453 (antisense kA*kG*kG*dT*dG*d[5mC]*d[5mC]*dA*d[5mC]*dT*dG*dT*dT*kA*kA*kG) [Compound 715453] | 59 % UTC
715585 (kA*kA*kG*dG*dT*d[5mC]*dT*dG*dG*dA*dA*d[5mC]*dA*kG*kA*kT; antisense) [Compound 715585] | 73 % UTC
715519 (kT*kT*k[5mC]*d[5mC]*dA*d[5mC]*dT*d[5mC]*dA*dA*dG*dT*dT*kA*k[5mC]*kA; antisense) [Compound 715519] | 96 % UTC
715597 (antisense k[5mC]*kT*kG*dG*dT*dT*d[5mC]*dA*dT*dG*dG*d[5mC]*dT*kG*kA*kA) [Compound 715597] | 89 % UTC
715429 (k[5mC]*k[5mC]*kT*dG*dA*dG*dT*d[5mC]*dA*dT*dG*dG*d[5mC]*kT*kT*kG; antisense) [Compound 715429] | 62 % UTC
715435 (antisense kG*kG*kT*d[5mC]*dT*dT*dG*dT*dT*d[5mC]*dT*dT*dA*kT*kG*kG) [Compound 715435] | 36 % UTC
715513 (kG*k[5mC]*kG*dG*dA*dG*dG*d[5mC]*dG*d[5mC]*dG*d[5mC]*dG*k[5mC]*kA*kT; antisense) [Compound 715513] | 125 % UTC
715603 (antisense kG*k[5mC]*kA*d[5mC]*dA*dG*dA*dA*dT*dT*d[5mC]*d[5mC]*d[5mC]*kA*kA*kG) [Compound 715603] | 106 % UTC
715459 (antisense k[5mC]*kT*k[5mC]*dG*dA*dG*dA*dG*dT*dG*dA*dT*dA*kG*kG*kT) [Compound 715459] | 93 % UTC
715552 (kA*kA*kA*dT*dA*dG*dG*dA*dA*dG*dT*dT*dG*kT*kT*kG; antisense) [Compound 715552] | 86 % UTC
715501 (antisense kA*kA*kA*dA*dG*d[5mC]*d[5mC]*dT*dT*dA*dG*dA*dG*kT*k[5mC]*kA) [Compound 715501] | 28 % UTC
715546 (kT*kG*kA*d[5mC]*d[5mC]*dA*dA*d[5mC]*dT*dA*d[5mC]*dT*dT*kG*kA*kA; antisense) [Compound 715546] | 59 % UTC

Same assay, conditions: Table 1; A-431 cells, free uptake, 2,000 nM, approximately 48 hours, RTS4814; Yap1 mRNA relative to untreated control cells

Substance | YAP1 (% UTC)
715460 (antisense kA*kT*k[5mC]*dT*d[5mC]*dG*dA*dG*dA*dG*dT*dG*dA*kT*kA*kG) [Compound 715460] | 114 % UTC
715598 (antisense k[5mC]*k[5mC]*k[5mC]*dA*dA*dG*d[5mC]*dT*dA*d[5mC]*d[5mC]*d[5mC]*dA*kA*kG*kA) [Compound 715598] | 103 % UTC
715517 (kG*kG*k[5mC]*d[5mC]*dT*dA*dT*dG*dA*dG*dT*d[5mC]*dA*kA*k[5mC]*k[5mC]; antisense) [Compound 715517] | 109 % UTC
715451 (antisense k[5mC]*kA*kT*dT*dG*dT*dT*d[5mC]*dT*d[5mC]*dA*dA*dT*kT*k[5mC]*k[5mC]) [Compound 715451] | 75 % UTC
715424 (kT*kG*k[5mC]*d[5mC]*dA*dT*dG*dT*dT*dG*dT*dT*dG*kT*k[5mC]*kT; antisense) [Compound 715424] | 58 % UTC
715565 (kG*kG*kA*dT*dA*dA*dA*dT*dG*dA*dA*dT*dT*kA*kT*kA; antisense) [Compound 715565] | 115 % UTC
715412 (k[5mC]*kT*kG*d[5mC]*dA*dT*d[5mC]*dA*dG*dT*dA*d[5mC]*dT*kG*kG*k[5mC]; antisense) [Compound 715412] | 66 % UTC
715607 (antisense kT*k[5mC]*kA*d[5mC]*d[5mC]*dA*dT*dA*dG*d[5mC]*dA*d[5mC]*dA*kG*kA*kA) [Compound 715607] | 116 % UTC
715631 (antisense kA*kT*kA*dA*dG*dA*dG*d[5mC]*d[5mC]*dT*dA*d[5mC]*d[5mC]*kT*kG*kA) [Compound 715631] | 134 % UTC
715508 (antisense k[5mC]*kT*kG*dT*dG*d[5mC]*dT*dG*dG*dG*dA*dT*dT*kG*kA*kT) [Compound 715508] | 24 % UTC
715589 (k[5mC]*k[5mC]*kA*dG*d[5mC]*dA*dG*d[5mC]*dT*dA*dA*d[5mC]*dA*kG*k[5mC]*kT; antisense) [Compound 715589] | 107 % UTC
715427 (k[5mC]*k[5mC]*kA*dT*d[5mC]*d[5mC]*dA*dT*d[5mC]*dA*dG*dG*dA*kA*kG*kA; antisense) [Compound 715427] | 90 % UTC
715484 (antisense kT*kA*k[5mC]*dT*d[5mC]*dT*dT*dT*dG*dG*dA*dA*dA*k[5mC]*k[5mC]*kA) [Compound 715484] | 123 % UTC
715442 (antisense k[5mC]*kA*k[5mC]*dT*dG*dG*dA*dG*d[5mC]*dA*d[5mC]*dT*d[5mC]*kT*kG*kA) [Compound 715442] | 64 % UTC
715433 (antisense kT*kG*kT*dT*d[5mC]*dT*dT*dA*dT*dG*dG*dT*dT*kT*kA*kT) [Compound 715433] | 36 % UTC
715622 (antisense kA*kG*kT*dA*dA*dA*dA*dA*dA*dT*dA*dA*dG*kA*k[5mC]*kG) [Compound 715622] | 137 % UTC
715478 (antisense kA*k[5mC]*k[5mC]*dA*dT*dT*dA*dT*dT*dA*d[5mC]*dT*d[5mC]*k[5mC]*kT*kG) [Compound 715478] | 7 % UTC

Same assay, conditions: Table 2; A-431 cells, free uptake, 2,000 nM, approximately 48 hours, RTS4814; Yap1 mRNA relative to untreated control cells

Substance | YAP1 (% UTC)
715407 (kG*kG*k[5mC]*dT*dT*dG*dA*dA*dG*dA*dA*dG*dG*kA*kG*kT; antisense) [Compound 715407] | 53 % UTC
715473 (antisense kT*k[5mC]*kT*dT*dT*dA*dT*d[5mC]*dT*dA*dG*d[5mC]*dT*kT*kG*kG) [Compound 715473] | 32 % UTC
715482 (antisense k[5mC]*kT*kT*dT*dG*dG*dA*dA*dA*d[5mC]*d[5mC]*dA*dT*kT*kA*kT) [Compound 715482] | 58 % UTC
715443 (antisense kT*kT*k[5mC]*dA*d[5mC]*dT*dG*dG*dA*dG*d[5mC]*dA*d[5mC]*kT*k[5mC]*kT) [Compound 715443] | 40 % UTC
715512 (antisense kA*kG*kG*d[5mC]*dG*d[5mC]*dG*d[5mC]*dG*d[5mC]*dA*dT*dT*kG*kT*kG) [Compound 715512] | 97 % UTC
715536 (kG*kG*k[5mC]*dT*dA*dT*dT*dA*dA*dG*d[5mC]*dT*dG*kT*kT*kT; antisense) [Compound 715536] | 137 % UTC
715599 (antisense kT*kT*k[5mC]*d[5mC]*d[5mC]*dA*dA*dG*d[5mC]*dT*dA*d[5mC]*d[5mC]*k[5mC]*kA*kA) [Compound 715599] | 82 % UTC
715452 (antisense kG*kT*k[5mC]*dA*dT*dT*dG*dT*dT*d[5mC]*dT*d[5mC]*dA*kA*kT*kT) [Compound 715452] | 71 % UTC
715572 (kT*k[5mC]*kA*dG*dA*dG*dA*dA*dG*dA*dA*dA*dG*kG*kT*kA; antisense) [Compound 715572] | 97 % UTC
715431 (k[5mC]*k[5mC]*kA*dT*d[5mC]*d[5mC]*dT*dG*dA*dG*dT*d[5mC]*dA*kT*kG*kG; antisense) [Compound 715431] | 99 % UTC
715518 (kT*kT*kT*dG*dG*dG*d[5mC]*dA*dA*dA*dG*dT*dT*k[5mC]*k[5mC]*kT; antisense) [Compound 715518] | 60 % UTC
715488 (antisense k[5mC]*kT*kA*dT*dT*dA*d[5mC]*dT*dT*d[5mC]*dA*dT*dA*kG*k[5mC]*kT) [Compound 715488] | 66 % UTC
715569 (k[5mC]*kA*kA*dA*dG*dG*dT*dA*dG*dG*dA*dT*dA*kA*kA*kT; antisense) [Compound 715569] | 122 % UTC
715581 (kA*kA*kG*d[5mC]*d[5mC]*dT*dG*dT*d[5mC]*dT*dG*dG*dA*kA*kT*kA; antisense) [Compound 715581] | 106 % UTC
715485 (antisense kA*kA*kT*dA*d[5mC]*dT*d[5mC]*dT*dT*dT*dG*dG*dA*kA*kA*k[5mC]) [Compound 715485] | 72 % UTC
715551 (kA*kT*kA*dG*dG*dA*dA*dG*dT*dT*dG*dT*dT*kG*kA*k[5mC]; antisense) [Compound 715551] | 82 % UTC
715464 (antisense k[5mC]*k[5mC]*kA*d[5mC]*dA*dT*dT*dT*dG*dT*d[5mC]*d[5mC]*d[5mC]*kA*kG*kG) [Compound 715464] | 89 % UTC
715422 (kA*kT*kG*dT*dT*dG*dT*dT*dG*dT*d[5mC]*dT*dG*kA*kT*k[5mC]; antisense) [Compound 715422] | 57 % UTC

Source: US11214803B2, “Modulators of YAP1 expression” (Ionis Pharmaceuticals, Inc., priority 2019, dated 2022)
